According to patent US10568854B2, “Compositions and methods for treating kabuki syndrome and related disorders” (THE JOHNS HOPKINS UNIVERSITY, priority 2014, dated 2020):

How the values were obtained:
[1] = tested on: H3K4me3 indicator (H3K4 trimethylation machinery activity); assay: H3K4me3 indicator reporter assay, FACS; assay type: cell-based; details: FIG. 17F
Text: Design of the indicator constructs. A genetically encoded histone reporter allele system has been developed which can be used to monitor activity of any histone maintenance machinery component in live cells. Previously, FRET based epigenetic activity systems have been created (Lin and Ting (2004) Angew Chem Int Ed Engl. 24;43 (22):2940-3; Lin et al. (2004) J. Am. Chem. Soc. 19;126(19):5982-3; U.S. Pat. No. 7,056,683). However, FRET-based assays need a complex technological setup which is not widely available and FRET-based assays have been much more difficult to introduce into transgenic mouse models. […] The particular construct design is based on a circularly permutated green fluorescent protein (GFP) that lacks fluorescence unless the two parts of GFP are brought into close proximity by external forces (Baird et al. (1999) Proc. Natl. Acad. Sci. U.S.A. 28;96(20):11241-6). […]
An H3K4 trimethylation reporter was also created. […] The activity of the epigenetic modification system can be quantified through fluorescence.
Epigenetic reporter alleles: Epigenetic reporter alleles were synthesized (OriGene, Rockville, Md.) using published sequences for component elements (Baird et al. (1999) Proc. Nail. Acad. Sci. 96:11241-6; Souslova et al. (2007) BMC Biotechnol. 7:37). […] FACS data were analyzed using FlowJo (Tree Star Inc, Ashland, Oreg.). […]

[2] = tested on: H3K4 trimethylation activity in Kmt2d^+/βGeo and Kmt2d^+/+ MEFs; assay: H3K4me3 indicator in murine embryonic fibroblasts (MEFs); assay type: cell-based, mouse
Text: An H3K4 trimethylation reporter was also created. This reporter is based on the H3 tail on one end and the TBP associated factor III (TAFIII) homeodomain on the other end; the TAFIII homeodomain only identifies and binds to trimethylated K4 on H3. When the H3K4 site gets trimethylated, the TAFIII homeodomain can bind to the modified H3 tail and bring the two parts of the separated GFP in close proximity. The activity of the epigenetic modification system can be quantified through fluorescence.
Epigenetic reporter alleles: Epigenetic reporter alleles were synthesized (OriGene, Rockville, Md.) using published sequences for component elements (Baird et al. (1999) Proc. Nail. Acad. Sci. 96:11241-6; Souslova et al. (2007) BMC Biotechnol. 7:37). Single nucleotide mutations were created using the QuickChange Lightening kit (Agilent Technologies Inc, Santa Clara, Calif.). For H4ac indicator, K5R, K8R, K12R, K16R and K20R (MUT indicator) were introduced. For H3K4me3 indicator, K4Q and D890A/W891A and M882A (three separate constructs) were introduced. For transient transfections, mouse embryonic fibroblasts (see below) were transfected with Fugene HD (Promega, Madison, Wis.), 48 hours prior to FACS. […] For drug stimulation, drug was added to the media 24 hours prior to FACS. For stable transfections in T293 (American Type Culture Collection) cells, 10 μg/ml of Blastocidin (Life Technologies, Carlsbad, Calif.) was added to the media for several weeks. For stable transfection in MEFs, the reporter was transferred to a ViraPower Lentiviral Expression System (Life Technologies, Carlsbad, Calif.). After selection with Blastocidin, the drug of interest was added 24 hours prior to FACS. SAHA, AR-42 and MS275 were purchased from Selleck (Selleck Chemicals, Houston, Tex.). […] FACS data were analyzed using FlowJo (Tree Star Inc, Ashland, Oreg.). A plasmid expressing HDAC3 was acquired from Addgene (Cambridge, Mass., plasmid 13819) and transfected into a stable cell line carrying the H4 acetyl reporter allele.

[3] = tested on: DCX positive cells in the GCL; assay: DCX (doublecortin) expression in the GCL, neurogenesis (AR-42 treated mice); assay type: in vivo, mouse
Text: Animals: Kmt2d^+/βGeo mice, also named Mll2Gt^(RRt024)Byg, were acquired from Bay Genomics (University of California). All experimental mice were on a mixed C57BL/6J and 129/SvEv background. Expected Mendelian ratios were observed when heterozygous animals were bred to wild-type. In heterozygous crosses, however, there was uniform embryonic lethality of homozygotes by ED12, the earliest developmental stage assayed. For treatment with AR-42 mice were orally gavaged daily with drug (Selleck Chemicals, Houston, Tex.) solubilized in vehicle (0.5% methylcellulose, 0.1% Tween-80, water) or with vehicle alone. Drug delivery information was kindly provided by Drs. Chen and Kulp from Ohio State University (Huang et al. (2011) Mol. Pharmacol. 79:197-20619). Drug was administered for 14 days and mice were sacrificed on day 15. Morris water maze testing was initiated at day 7 and a dose of 10 mg/kg/day was used for these studies. For quantification of DCX positive cells, doses of 0, 5, 10 and 25 mg/kg/day were used. Genotyping was performed using primers B-GeoF-([…]; SEQ ID NO: 1) and B-GeoR-([…]; SEQ ID NO: 2) that are specific for the targeted allele and TcrdF-([…]; SEQ ID NO: 3) and TcrdR-([…]; SEQ ID NO: 4) that control for sufficient DNA concentration. Real-time PCR using the same primers allows discrimination between the heterozygous and homozygous state for the targeted allele. Maxillary protrusion was evaluated by ten investigators blinded to genotype and they were asked to rate maxillary protrusion on radiographs as either large (2) or small (1). […] All experiments were performed using mouse protocols approved by the Animal Care and Use Committee of Johns Hopkins University School of Medicine. The mouse protocols used for this study are in accordance with the guidelines used by the NIH for mouse care and handling.
Immunofluorescence: Every 6th brain section was selected and then blocked with 5% Bovine Serum Albumin (BSA) at room temperature followed by incubation with primary antibodies overnight at 4° C. Secondary antibodies were then applied for 1 hour at room temperature, after which sections were mounted onto microscope slides with Vectamount with DAPI (Vector Laboratories, Burlingame, Calif.). Primary antibodies included Doublecortin (DCX) (SC-8066, Santa Cruz Biotechnology, Dallas, Tex., 1:200 goat), trimethylated H3K4 (9727L, Cell Signaling Technology, Beverly, Mass., 1:500 rabbit), and Kmt2d H-300 (SC-292359, Santa Cruz Biotechnology, Dallas, Tex., 1:500 rabbit). Non-specific binding was not observed when sections were sequentially exposed to serum (or IgG when appropriate) from the same species as the primary antibody for each experiment (i.e. rabbit for KMT2D and H3K4me3 and goat for doublecortin), followed by the secondary antibody used for KMT2D and H3K4me3 (anti-rabbit) or doublecortin (anti-goat, FIG. 27).
GCL and doublecortin area: The area of both the GCL and DCX+ cells was measured using the NS elements 2.0 software (Nikon, Tokyo, JPN). Normalized DCX area was calculated by measuring the DCX+ area of the GCL and setting the baseline (Kmt2d^+/+) fraction to 1. A Student t-test with significance value set at P<0.05 was used for comparison of DCX+ area referenced to GCL area between genotypes and treatment arms.

[4] = tested on: H3K4 trimethylation and histone acetylation; details: cited from earlier work

Q: With CC(C)[C@H](C(=O)Nc1ccc(C(=O)NO)cc1)c1ccccc1 [AR-42, (S)—N-hydroxy-4-(3-methyl-2-phenylbutanamido)benzamide] as the compound, how does the “H3K4me3 indicator response to increasing levels of drug” value [1] read?
A: dose dependent response

Q: What about the cell numbers ([1]; higher doses) of the same compound?
A: decreased cell numbers at higher doses

Q: And the “dose at which Kmt2d^+/βGeo MEFs achieve untreated wild-type levels of H3K4me3 indicator activity” value ([2]; Kmt2d^+/βGeo MEFs)?
A: 5 µM

Q: And the H3K4 trimethylation activity ([2]; Kmt2d^+/βGeo cells treated with HDAC inhibitor)?
A: enhanced

Q: What about the “H3K4me3 indicator activity in MEFs” value ([2]; both genotypes (Kmt2d^+/βGeo, Kmt2d^+/+)) of the same compound?
A: dose-dependent response

Q: And the “DCX expression in the GCL” value ([3]; 10 mg/kg/day, older mice (5-6 months), Kmt2d^+/βGeo)?
A: improved

Q: And the “DCX expression in the GCL” value ([3]; 25 mg/kg/day, Kmt2d^+/+ animals)?
A: reduced DCX expression

Q: And the “DCX expression in the GCL” value ([3]; 25 mg/kg/day, Kmt2d^+/βGeo mice)?
A: did not improve DCX expression

Q: What about the “DCX expression in the GCL” value ([3]; 25 mg/kg/day, young (1-2 month-old) and old (5-6 month-old), both genotypes) of the same compound?
A: decreased DCX expression

Q: And the “neurogenesis (normalized DCX expression)” value ([3]; 1-2 month old Kmt2d^+/βGeo mice, doses 0, 5, 10 mg/kg/day)?
A: dose-dependent increase in neurogenesis

Q: And the “DCX expression in the GCL” value ([3]; 5 and 10 mg/kg/day, Kmt2d^+/+ or Kmt2d^+/βGeo, both age groups)?
A: preservation or restoration of DCX expression

Q: And the “relative effect on H3K4me3” value ([4]; AR-42 versus MS275, Huang et al. (2011))?
A: strongest effect on H3K4me3

Q: And the “effect on H3K4 trimethylation and histone acetylation” value ([4]; Huang et al. (2011))?
A: increase H3K4 trimethylation and histone acetylation
